How the values were obtained:
K-562 (leukemia) = test: NCI-60 single dose screen, K-562; assay type: cell-based; details: Homo sapiens, K562, read-out: percent growth inhibition
HL60(TB) (leukemia) = test: NCI-60 single dose screen, HL60; assay type: cell-based; details: Homo sapiens, HL-60, read-out: percent growth inhibition

Cc1cc(=O)[nH]c(=O)n1Cc1cn(-c2c3ccccc3nc3ccccc23)nn1 [Compound 8, 1-((1-(Acridin-9-yl)-1H-1,2,3-triazol-4-yl)methyl)-6-methylpyrimidine-2,4(1H,3H)-dione] was tested, and the inhibition at 10 µM (K-562 (leukemia)) was 83.7% and the inhibition at 10 µM (HL60(TB) (leukemia)) was 92.9%.

Reference: publication PMC8757608 (Journal of Enzyme Inhibition and Medicinal Chemistry, 2022)
